Counter-ions that a name gives are not always drawn. Square brackets hold non-standard residues; d marks the D form. Peptide text beside a SMILES is read from it. * marks the point of attachment. Sta = CC(C)C[C@H](N)[C@@H](O)CC(=O)O; Isovaleryl = CC(C)CC(=O)*
test system: ATGL-KO iPSCs; assay: High throughput iPSC chemical screening, Oil Red O (ORO) lipid accumulation; type: cell-based, mouse; conditions: not given; for Z-score: test concentration or dose not given here

| Compound | Z-score |
| --- | --- |
| CC(N)C(O)c1ccccc1 (centres unmarked) [Phenylpropanolamine hydrochloride] | 0.2625 |
| C[n+]1ccccc1/C=N/O [Pralidoxime chloride] | 1.281 |

same assay, conditions: glycolytic switch compounds

| Compound | Rank in normalized ORO score from screen |
| --- | --- |
| [H]/N=C(/N)N/C(=N/[H])NCCc1ccccc1 [Phenformin hydrochloride] | 524 |
| CC(COc1ccccc1)N(CCCl)Cc1ccccc1 (centres unmarked) [Phenoxybenzamine hydrochloride] | 702 |
| O=c1[nH]c2ccccc2n1C1CCN(CCCC(c2ccc(F)cc2)c2ccc(F)cc2)CC1 [Pimozide] | 330 |
| CCN1CCCC(OC(=O)C(c2ccccc2)c2ccccc2)C1 (centres unmarked) [Piperidolate hydrochloride] | 449 |
| CC(=O)[C@H]1CC[C@H]2[C@@H]3CC=C4C[C@@H](O)CC[C@]4(C)[C@H]3CC[C@]12C [Pregnenolone] | 924 |

same assay, conditions: normalized ORO level vs DMSO-treated cells; compound present during 7 days differentiation, 96-well; negative = decrease in lipid accumulation

| Compound | Z-score |
| --- | --- |
| CC(C)(CO)[C@@H](O)C(=O)NCCCO [Panthenol (D)] | −0.069 |
| CC(C)(CO)[C@@H](O)C(=O)NCCC(=O)O [Pantothenic acid calcium salt monohydrate] | −1.5008 |
| COc1ccc(Cc2nccc3cc(OC)c(OC)cc23)cc1OC [Papaverine hydrochloride] | 9.542 |
| CCCCc1ccc2[nH]c(NC(=O)OC)nc2c1 [Parbendazole] | 39.1106 |
| C#CCN(C)Cc1ccccc1 [Pargyline hydrochloride] | −0.735 |
| NC[C@@H]1O[C@H](O[C@H]2[C@@H](O)[C@H](O[C@@H]3[C@@H](O)[C@H](N)C[C@H](N)[C@H]3O[C@H]3O[C@H](CO)[C@@H](O)[C@H](O)[C@H]3N)O[C@@H]2CO)[C@H](N)[C@@H](O)[C@@H]1O [Paromomycin sulfate] | −0.0138 |
| Fc1ccc([C@@H]2CCNC[C@H]2COc2ccc3c(c2)OCO3)cc1 [Paroxetine Hydrochloride] | −0.9182 |
| CN1C(C)(C)CCCC1(C)C [Pempidine tartrate] | −0.8069 |
| CC(C)(C)NC[C@H](O)COc1ccccc1C1CCCC1 [Penbutolol sulfate] | −0.627 |
| N=C(N)c1ccc(OCCCCCOc2ccc(C(=N)N)cc2)cc1 [Pentamidine isethionate] | 14.9126 |
| O=C(O)CN(CCN(CC(=O)O)CC(=O)O)CCN(CC(=O)O)CC(=O)O [Pentetic acid] | 0.9077 |
| C[N+]1(CCCCC[N+]2(C)CCCC2)CCCC1.O=C([O-])C(O)C(O)C(=O)O.O=C([O-])C(O)C(O)C(=O)O [Pentolinium bitartrate] | −0.9629 |
| CC(=O)CCCCn1c(=O)c2c(ncn2C)n(C)c1=O [Pentoxifylline] | −1.1547 |
| C1CCc2nnnn2CC1 [Pentylenetetrazole] | 0.6653 |
| CC(C)CC(=O)N[C@H](C(=O)N[C@H](C(=O)N[C@@H](CC(C)C)[C@@H](O)CC(=O)N[C@@H](C)C(=O)N[C@@H](CC(C)C)[C@@H](O)CC(=O)O)C(C)C)C(C)C [Pepstatin A] (Isovaleryl-VV[Sta]A[Sta]-OH) | 1.261 |
| CCCN1C[C@H](CSC)C[C@@H]2c3cccc4[nH]cc(c34)C[C@H]21 [Pergolide mesylate] | −0.3289 |
| OCCN1CCN(CCCN2c3ccccc3Sc3ccc(Cl)cc32)CC1 [Perphenazine] | −1.5218 |
| CCOc1ccc(NC(C)=O)cc1 [Phenacetin] | 0.5 |
| Nc1ccc(/N=N/c2ccccc2)c(N)n1 [Phenazopyridine hydrochloride] | −0.2483 |
| NNCCc1ccccc1 [Phenelzine sulfate] | 0.6672 |
| CC(Oc1ccccc1)C(=O)N[C@@H]1C(=O)N2[C@@H]1SC(C)(C)[C@@H]2C(=O)O (some centres unmarked) [Phenethicillin potassium salt] | −0.0851 |
| [H]/N=C(/N)N/C(=N/[H])NCCc1ccccc1 [Phenformin hydrochloride] | −0.2777 |
| O=C1c2ccccc2C(=O)C1c1ccccc1 [Phenindione] | 0.2654 |
| CN(C)CCC(c1ccccc1)c1ccccn1 (centres unmarked) [Pheniramine maleate] | 0.3153 |
| CC(COc1ccccc1)N(CCCl)Cc1ccccc1 (centres unmarked) [Phenoxybenzamine hydrochloride] | 0.2031 |
| CN1C(=O)CC(c2ccccc2)C1=O (centres unmarked) [Phensuximide] | 0.02844 |

| Compound | Z-score |
| --- | --- |
| Cc1ccc(N(CC2=NCCN2)c2cccc(O)c2)cc1 [Phentolamine hydrochloride] | 0.3245 |
| O=C(O)c1ccccc1C(=O)Nc1ccc(S(=O)(=O)Nc2nccs2)cc1 [Phthalylsulfathiazole] | −1.0074 |
| COc1ccc(C(=O)NCc2cccnc2)cc1C(=O)NCc1cccnc1 [Picotamide monohydrate] | −1.2123 |
| C=C(C)[C@@H]1[C@H]2OC(=O)[C@@H]1[C@]1(O)C[C@H]3O[C@]34C(=O)O[C@H]2[C@]14C [Picrotoxinin] | −0.1703 |
| CC[C@@H]1C(=O)OC[C@@H]1Cc1cncn1C [Pilocarpine nitrate] | −0.2819 |
| CN1CCC(=C2c3ccccc3Sc3ccccc32)CC1 [Pimethixene maleate] | −0.4872 |
| O=c1[nH]c2ccccc2n1C1CCN(CCCC(c2ccc(F)cc2)c2ccc(F)cc2)CC1 [Pimozide] | −0.7483 |
| CC(N/C(=N\C#N)Nc1ccncc1)C(C)(C)C (centres unmarked) [Pinacidil] | 0.3162 |
| CC(C)NCC(O)COc1cccc2[nH]ccc12 (centres unmarked) [Pindolol] | 0.03656 |
| CCn1cc(C(=O)O)c(=O)c2cnc(N3CCNCC3)nc21 [Pipemidic acid] | −1.4165 |
| CC[N+]1(C)CCCC(OC(=O)C(O)(c2ccccc2)c2ccccc2)C1 (centres unmarked) [Pipenzolate bromide] | −1.06 |
| CC(=O)c1ccc2c(c1)N(CCCN1CCC(CCO)CC1)c1ccccc1S2 [Piperacetazine] | −0.4798 |
| CCN1CCN(C(=O)N[C@@H](C(=O)N[C@@H]2C(=O)N3[C@@H]2SC(C)(C)[C@@H]3C(=O)O)c2ccccc2)C(=O)C1=O [Piperacillin sodium salt] | −0.9149 |
| CCN1CCCC(OC(=O)C(c2ccccc2)c2ccccc2)C1 (centres unmarked) [Piperidolate hydrochloride] | −0.4895 |
| O=C(/C=C/C=C/c1ccc2c(c1)OCO2)N1CCCCC1 [Piperine] | 1.588 |
| COc1cc(/C=C/C(=O)N2CCC=CC2=O)cc(OC)c1OC [Piperlongumine] | 16.6479 |
| NC(=O)CN1CCCC1=O [Piracetam] | 0.8038 |
| CN1CCN(CC(=O)N2c3ccccc3C(=O)Nc3cccnc32)CC1 [Pirenzepine dihydrochloride] | −1.096 |
| NS(=O)(=O)c1cc(C(=O)O)cc(N2CCCC2)c1Oc1ccccc1 [Piretanide] | 0.2521 |
| c1cnc(N2CCN(Cc3ccc4c(c3)OCO4)CC2)nc1 [Piribedil hydrochloride] | −1.3522 |
| CCn1cc(C(=O)O)c(=O)c2cnc(N3CCCC3)nc21 [Piromidic acid] | 0.2604 |
| CN1C(C(=O)Nc2ccccn2)=C(O)c2ccccc2S1(=O)=O [Piroxicam] | 0.7254 |
| CC(C)(C)C(=O)OCOC(=O)[C@@H]1N2C(=O)[C@@H](NC(=O)[C@H](N)c3ccccc3)[C@H]2SC1(C)C [Pivampicillin] | −1.1929 |
| CC(C)(C)C(=O)OCOC(=O)[C@@H]1N2C(=O)[C@@H](/N=C/N3CCCCCC3)[C@H]2SC1(C)C [Pivmecillinam hydrochloride] | −0.219 |
| COc1cc([C@@H]2c3cc4c(cc3[C@H](O)[C@H]3COC(=O)[C@H]23)OCO4)cc(OC)c1OC [Podophyllotoxin] | 46.4771 |
| CC(=O)Nc1ccc(OCC(O)CNC(C)C)cc1 (centres unmarked) [Practolol] | −0.3373 |

| Compound | Z-score |
| --- | --- |
| CCCCOc1ccc(OCCCN2CCOCC2)cc1 [Pramoxine hydrochloride] | 0.5195 |
| O=C(C1CCCCC1)N1CC(=O)N2CCc3ccccc3C2C1 (centres unmarked) [Praziquantel] | −0.5159 |
| COc1cc2nc(N3CCN(C(=O)c4ccco4)CC3)nc(N)c2cc1OC [Prazosin hydrochloride] | 0.6597 |
| CCOC(=O)O[C@]1(C(=O)COC(=O)CC)CC[C@H]2[C@@H]3CCC4=CC(=O)C=C[C@]4(C)[C@H]3[C@@H](O)C[C@@]21C [Prednicarbate] | −0.9408 |
| C[C@]12C=CC(=O)C=C1CC[C@@H]1[C@@H]2[C@@H](O)C[C@@]2(C)[C@H]1CC[C@]2(O)C(=O)CO [Prednisolone] | −0.8986 |
| C[C@]12C=CC(=O)C=C1CC[C@@H]1[C@@H]2C(=O)C[C@@]2(C)[C@H]1CC[C@]2(O)C(=O)CO [Prednisone] | 0.05393 |
| CC(=O)[C@H]1CC[C@H]2[C@@H]3CC=C4C[C@@H](O)CC[C@]4(C)[C@H]3CC[C@]12C [Pregnenolone] | 1.076 |
| CCCNC(C)C(=O)Nc1ccccc1C (centres unmarked) [Prilocaine hydrochloride] | −1.2624 |
| COc1cc(NC(C)CCCN)c2ncccc2c1 (centres unmarked) [Primaquine diphosphate] | 5.51 |
| CCC1(c2ccccc2)C(=O)NCNC1=O [Primidone] | −0.0045 |
| CCCC(C(=O)OCCN(CC)CC)(c1ccccc1)c1ccccc1 [Proadifen hydrochloride] | −1.1876 |
| CCCN(CCC)S(=O)(=O)c1ccc(C(=O)O)cc1 [Probenecid] | 0.754 |
| CC(C)(Sc1cc(C(C)(C)C)c(O)c(C(C)(C)C)c1)Sc1cc(C(C)(C)C)c(O)c(C(C)(C)C)c1 [Probucol] | 1.626 |
| CCN(CC)CCNC(=O)c1ccc(N)cc1 [Procainamide hydrochloride] | −0.2319 |
| CCN(CC)CCOC(=O)c1ccc(N)cc1 [Procaine hydrochloride] | −0.5215 |
| CNNCc1ccc(C(=O)NC(C)C)cc1 [Procarbazine hydrochloride] | 1.675 |
| CN1CCN(CCCN2c3ccccc3Sc3ccc(Cl)cc32)CC1 [Prochlorperazine dimaleate] | 1.82 |
| OC(CCN1CCCC1)(c1ccccc1)C1CCCCC1 (centres unmarked) [Procyclidine hydrochloride] | −0.6071 |
| CC(=O)[C@H]1CC[C@H]2[C@@H]3CCC4=CC(=O)CC[C@]4(C)[C@H]3CC[C@]12C [Progesterone] | 2.344 |
| CCCN(CCC)C(=O)C(CCC(=O)O)NC(=O)c1ccccc1 (centres unmarked) [Proglumide] | 0.1235 |
| [H]/N=C(\N/C(=N/[H])Nc1ccc(Cl)cc1)NC(C)C [Proguanil hydrochloride] | 16.0329 |
| CN(C)CCCN1c2ccccc2Sc2ccccc21 [Promazine hydrochloride] | 0.01386 |
| CC(CN1c2ccccc2Sc2ccccc21)N(C)C (centres unmarked) [Promethazine hydrochloride] | −1.4251 |
| CC(C)NCC(O)c1ccc2ccccc2c1 (centres unmarked) [Pronethalol hydrochloride] | −0.9002 |
